# Data published in patent publication US9732093B2, “FLAP modulators” (JANSSEN PHARMACEUTICA NV, priority 2013, dated 2017).
# Where a name gives a salt, the structure may show the parent alone. Read-outs that look alike come from different tables or passages of the source.
# How the values were obtained:
# human FLAP = human FLAP (Homo sapiens (Human), UniProt P20292); test: FLAP binding assay (HTRF format)
# Method: (§1) The ability of the compounds of the present invention to treat a FLAP-mediated disease and/or disorder, or associated symptoms or complications thereof, was determined using the following procedures. Binding assay data represent the average value obtained from two different assay plates, with samples run in duplicate on each plate. Human whole blood assay data represent a single replicate on an assay plate using whole blood from at least one healthy donor.
# Data are expressed as a HTRF ratio.
# [1] = system: leukotriene pathway in human whole blood; test: Human whole blood assay (LTB4 levels after A23187 stimulation); assay type: cell-based
# Method: as §1
# An in vitro cellular assay was performed using human whole blood collected in heparin-containing tubes, which was used to test the ability of compounds to modulate the leukotriene pathway in human whole blood. The blood was diluted 1:1 in RPMI medium, pre-incubated for 15 min at 37° Celsius with test compounds at various concentrations, and then stimulated with calcium ionophore, A23187 (7 μg/mL), for 30 min at 37° Celsius. The samples were then centrifuged and plasma was removed. The plasma was diluted in assay buffer and LTB4 levels were measured using a commercial kit (Enzo Life Sciences). The concentration of each compound that was required for half-maximal inhibition (modulation) of recombinant enzyme activity (IC50) was calculated by a 4-parameter equation using the program GraphPad Prism (GraphPad software).
# [2] = human FLAP wild type membranes, HTRF format, Table 6 (additional runs)
# [3] = human whole blood diluted 1:1 in RPMI, A23187 stimulation, Table 6 (additional runs)
# [4] = blood diluted 1:1 in RPMI, 15 min pre-incubation, A23187 7 μg/mL for 30 min at 37° Celsius, plasma LTB4
# [5] = Homo sapiens, blood diluted 1:1 in RPMI, 15 min pre-incubation, A23187 7 μg/mL for 30 min at 37° Celsius, plasma LTB4
# Sequence of human FLAP (P20292 whole entry): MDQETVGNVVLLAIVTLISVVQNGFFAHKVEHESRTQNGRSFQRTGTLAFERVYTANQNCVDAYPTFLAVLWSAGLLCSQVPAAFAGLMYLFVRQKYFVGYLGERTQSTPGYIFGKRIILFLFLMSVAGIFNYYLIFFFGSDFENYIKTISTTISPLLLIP
Ki (human FLAP; [2]) [nM],"IC50 [1, 3] [nM]",Molecule,further results
1.7,95.9,"Nc1cnc(-c2ccc(C3CCC3)c(Oc3ccc(N)nn3)c2F)cn1 [Example 338, 6-[3-(5-Aminopyrazin-2-yl)-6-cyclobutyl-2-fluorophenoxy]pyridazin-3-amine]",
,> 10000,"Cc1ccc(-c2cnc(N)cn2)c(F)c1Oc1ncccn1 [Example 314, 5-[2-Fluoro-4-methyl-3-(pyrimidin-2-yloxy)phenyl]pyrazin-2-amine]",
,100,"Nc1cnc(-c2ccc(C3CCC3)c(OCCN3C(=O)c4ccccc4C3=O)c2F)cn1 [Example 293, 2-{2-[3-(5-Aminopyrazin-2-yl)-6-cyclobutyl-2-fluorophenoxy]ethyl}-1H-isoindole-1,3(2H)-dione]",
51.5,78,"CC(C)(C)c1ccc(-c2cnc(N)nc2)c(F)c1Oc1ncccn1 [Example 207, 5-[4-tert-Butyl-2-fluoro-3-(pyrimidin-2-yloxy)phenyl]pyrimidin-2-amine]",
,160,"CC(C)(C)c1ccc(-c2cnc(N)nc2)c(F)c1Oc1cc(N)ncn1 [Example 208, 5-{3-[(6-Aminopyrimidin-4-yl)oxy]-4-tert-butyl-2-fluorophenyl}pyrimidin-2-amine]",
3.9,56.6,"Nc1cnc(-c2ccc(C3CCC3)c(Oc3cc(N)ncn3)c2F)cn1 [Example 136, 6-[3-(5-Aminopyrazin-2-yl)-6-cyclobutyl-2-fluorophenoxy]pyrimidin-4-amine]",
,128,"NC(=O)c1ccc(Oc2c(C3CCC3)ccc(-c3cnc(N)cn3)c2F)cc1 [Example 155, 4-[3-(5-Aminopyrazin-2-yl)-6-cyclobutyl-2-fluorophenoxy]benzamide]",
86.1,895,"Nc1cnc(-c2ccc(C3CCC3)c(OCc3cccc(C(F)(F)F)c3)c2F)cn1 [Compound 2, 5-(4-Cyclobutyl-2-fluoro-3-{[3-(trifluoromethyl)benzyl]oxy}phenyl)pyrazin-2-amine]",
,266,"Nc1cnc(-c2ccc(C3CCC3)c(OCC(O)Cn3c(=O)[nH]c4ccccc43)c2F)cn1 (racemic) [Example 311, racemic 1-{3-[3-(5-Aminopyrazin-2-yl)-6-cyclobutyl-2-fluorophenoxy]-2-hydroxypropyl}-1,3-dihydro-2H-benzimidazol-2-one]",
4.6,52.7,"Nc1ncc(-c2ccc(C3CCCC3)c(Oc3ncccn3)c2F)cn1 [Example 334, 5-[4-Cyclopentyl-2-fluoro-3-(pyrimidin-2-yloxy)phenyl]pyrimidin-2-amine]",
47.6,396,"Nc1cnc(-c2ccc(C3CCC3)c(Oc3ccnc(N)c3)c2F)cn1 [Example 347, 5-{3-[(2-Aminopyridin-4-yl)oxy]-4-cyclobutyl-2-fluorophenyl}pyrazin-2-amine]",
14.2,15.1,"Nc1cnc(-c2ccc(C3CCCCC3)c(O)c2F)cn1 [Example 345, 3-(5-Aminopyrazin-2-yl)-6-cyclohexyl-2-fluorophenol]",
,21.4,"Nc1cnc(-c2ccc(C3CCC3)c(Oc3ccnc(N)n3)c2F)cn1 [Example 130, 4-[3-(5-Aminopyrazin-2-yl)-6-cyclobutyl-2-fluorophenoxy]pyrimidin-2-amine]",
,453,"COC(=O)c1coc(COc2c(C3CCC3)ccc(-c3cnc(N)cn3)c2F)n1 [Example 281, Methyl 2-{[3-(5-aminopyrazin-2-yl)-6-cyclobutyl-2-fluorophenoxy]methyl}-1,3-oxazole-4-carboxylate trifluoroacetic acid salt]",
8.1,26.3,"Nc1cnc(-c2ccc(C3CCC3)c(OCc3ccc(-c4ccc(C(F)(F)F)cc4)cc3)c2F)cn1 [Example 342, 5-(4-Cyclobutyl-2-fluor-3-{[4-(trifluoromethyl)biphenyl-4-yl]methoxy}phenyl)pyrazin-2-amine]",
54.4,124,"CC(C)(C)c1ccc(-c2cnc3[nH]ccc3c2)c(F)c1Oc1ncccn1 [Example 351, 5-[4-tert-Butyl-2-fluoro-3-(pyrimidin-2-yloxy)phenyl]-1H-pyrrolo[2.3-b]pyridine]",
,1860,"N#CCOc1c(C2CCC2)ccc(-c2cnc(N)cn2)c1F [Example 276, [3-(5-Aminopyrazin-2-yl)-6-cyclobutyl-2-fluorophenoxy]acetonitrile]",

Ki (human FLAP; [2]) [nM],"IC50 [1, 3] [nM]",Molecule,further results
99.5,1100,"Nc1ncc(-c2ccc(C3CCC3)c(O)c2F)cn1 [Intermediate E, 3-(2-Aminopyrimidin-5-yl)-6-cyclobutyl-2-fluorophenol]","IC50 [1, 5]: 1100 nM"
,538,"Nc1cnc(-c2ccc(C3CCC3)c(OCc3nc4ccccc4s3)c2F)cn1 [Example 283, 5-[3-(1,3-Benzothiazol-2-ylmethoxy)-4-cyclobutyl-2-fluorophenyl]pyrazin-2-amine trifluoroacetic acid salt]",
,287,"CC(C)(C)c1ccc(-c2cnc(N)nc2)c(F)c1O [Intermediate H, 3-(2-Aminopyrimidin-5-yl)-6-tert-butyl-2-fluorophenol]","Ki (human FLAP; human FLAP-containing membranes, HTRF ligand 25 nM, 2 h, average of two plates, duplicates, read-out: FLAP Binding wild type HTRF Ki): 72.3 nM; IC50 [1, 5]: 287 nM"
,,5-(4-Cyclobutyl-2-fluoro-3-hydroxyphenyl)pyridin-2-amine [Intermediate F],"IC50 [1, 4]: 1300 nM"
,124,Nc1cnc(-c2ccc(C3CCC3)c(Oc3cc(O)ncn3)c2F)cn1 [Example 98],
,188,"Nc1cnc(-c2ccc(C3CCC3)c(OCCNc3cnccn3)c2F)cn1 [Example 295, 5-{4-Cyclobutyl-2-fluoro-3-[2-(pyrazin-2-ylamino)ethoxy]phenyl}pyrazin-2-amine trifluoroacetic acid salt]",
,126,"COc1cc(Oc2c(C3CCC3)ccc(-c3cnc(N)cn3)c2F)ncn1 [Example 97, 5-{4-Cyclobutyl-2-fluoro-3-[(6-methoxypyrimidin-4-yl)oxy]phenyl}pyrazin-2-amine]",
,114,"Nc1cnc(-c2ccc(C3CC3)c(Oc3nccc(N)n3)c2F)cn1 [Example 279, 2-[3-(5-Aminopyrazin-2-yl)-6-cyclopropyl-2-fluorophenoxy]pyrimidin-4-amine]",
,283,"Nc1cnc(-c2ccc(C3CCC3)c(OCCNc3ncccn3)c2F)cn1 [Example 296, N-{2-[3-(5-Aminopyrazin-2-yl)-6-cyclobutyl-2-fluorophenoxy]ethyl}pyrimidin-2-amine trifluoroacetic acid salt]",
,191,"Nc1cnc(-c2ccc(C3CCC3)c(Oc3cccnn3)c2F)cn1 [Example 277, 5-[4-Cyclobutyl-2-fluoro-3-(pyridazin-3-yloxy)phenyl]pyrazin-2-amine]",
,212,"Nc1cnc(-c2ccc(C3CCC3)c(OCCNc3ccncn3)c2F)cn1 [Example 297, N-{2-[3-(5-Aminopyrazin-2-yl)-6-cyclobutyl-2-fluorophenoxy]ethyl}pyrimidin-4-amine]",
1.2,,"COc1nc(N)cc(Oc2c(C3CCC3)ccc(-c3cnc(N)cn3)c2F)n1 [Example 100, 6-[3-(5-Aminopyrazin-2-yl)-6-cyclobutyl-2-fluorophenoxy]-2-methoxypyrimidin-4-amine]",
118,,"Nc1cnc(-c2ccc(C3CCC3)c(OCc3ccccc3C(F)(F)F)c2F)cn1 [Compound 3, 5-(4-Cyclobutyl-2-fluoro-3-{[2-(trifluoromethyl)benzyl]oxy}phenyl)pyrazin-2-amine]",
53.7,,"Nc1cnc(-c2ccc(C3CCC3)c(Oc3ccc(S(F)(F)(F)(F)F)cc3)c2F)cn1 [Example 115, 5-{4-Cyclobutyl-2-fluoro-3-[4-(pentafluoro-lambda˜6˜-sulfanyl)phenoxy]phenyl}pyrazin-2-amine]",
28.1,,"Nc1cnc(-c2ccc(C3CCC3)c(OCc3ccc(C(=O)O)o3)c2F)cn1 [Example 85, 5-{[3-(5-Aminopyrazin-2-yl)-6-cyclobutyl-2-fluorophenoxy]methyl}furan-2-carboxylic acid]",
6.6,,"Nc1cnc(-c2ccc(C3CCC3)c(Oc3nccc(N)n3)c2F)cn1 [Example 119, 2-[3-(5-Aminopyrazin-2-yl)-6-cyclobutyl-2-fluorophenoxy]pyrimidin-4-amine]",
3.5,,"CSc1ccnc(Oc2c(C3CCC3)ccc(-c3cnc(N)cn3)c2F)n1 [Example 88, 5-(4-Cyclobutyl-2-fluoro-3-{[4-(methylsulfanyl)pyrimidin-2-yl]oxy}phenyl)pyrazin-2-amine]",

Molecule,Ki (human FLAP; [2]) [nM],"IC50 [1, 3] [nM]",further results
"6-Cyclobutyl-2-fluoro-3-(5H-pyrrolo[2,3-b]pyrazin-2-yl)phenol [Example 176]",~75,1300,"IC50 [1, 4]: 892 nM"
"2-(4-Cyclobutyl-2-fluoro-3-{[4-(trifluoromethyl)benzyl]oxy}phenyl)-5H-pyrrolo[2,3-b]pyrazine trifluoroacetate salt [Example 177]",,892,"IC50 [1, 4]: 771 nM"
"5-(4-Cyclobutyl-2-fluoro-3-methoxyphenyl)-1H-pyrrolo[2,3-b]pyridine [Intermediate I]",,1670,"IC50 [1, 4]: 1670 nM"
"CC(C)CNc1nccc(Oc2c(C3CCC3)ccc(-c3cnc(N)cn3)c2F)n1 [Example 261, 4-(3-(5-Aminopyrazin-2-yl)-6-cyclobutyl-2-fluorophenoxy)-N-isobutylpyrimidin-2-amine trifluoroacetic acid salt]",2.2,,
